Data taken from ChEMBL document CHEMBL1201862, “PubChem BioAssay data set” (2004).
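Cultured in 96-well plates, cells were exposed to test compound for 48 hours across five concentrations. GI50 marks 50% less growth.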 Calls of active or inactive are those of the source. No stated cut-off is given here; in the data, active = GI50 up to about 1.1 µM and inactive = higher.

Tests used:
Assay in all cases: NCI-60 cell line screen, 48 h
TK-10 = system: TK-10
SW-620 = system: SW-620
SK-MEL-28 = system: SK-MEL-28
IGROV-1 = system: IGROV-1
NCI-H23 = system: NCI-H23
OVCAR-5 = system: OVCAR-5
CCRF-CEM = system: CCRF-CEM
MOLT-4 = system: MOLT-4
A549 = system: A549
HT-29 = system: HT-29
HOP-62 = system: HOP-62
RXF 393 = system: RXF 393
M14 = system: M14
HCT-116 = system: HCT-116
COLO 205 = system: COLO 205

Measured: GI50

Cc1cc(C)nc(NS(=O)(=O)c2ccc(NC(=O)c3cccc4c(Nc5ccc(S(N)(=O)=O)cc5)c5ccccc5nc34)cc2)n1
inactive: TK-10 > 74.6 µM | SW-620 20.6 µM | SK-MEL-28 3.09 µM | IGROV-1 4.24 µM | NCI-H23 37.1 µM | OVCAR-5 > 100 µM | CCRF-CEM 6.82 µM | MOLT-4 6.71 µM | A549 > 100 µM | HT-29 34.9 µM | HOP-62 26.7 µM | RXF 393 11.2 µM | M14 > 82.6 µM | HCT-116 7.64 µM | COLO 205 26.6 µM

CC1=NN(C(=O)c2ccc(Cl)cc2)C(=O)/C1=C/c1ccc(O)cc1
inactive: TK-10 > 100 µM | SW-620 > 100 µM | SK-MEL-28 > 100 µM | IGROV-1 > 100 µM | NCI-H23 > 100 µM | OVCAR-5 > 100 µM | CCRF-CEM > 100 µM | MOLT-4 > 100 µM | A549 > 100 µM | HT-29 > 100 µM | HOP-62 > 100 µM | RXF 393 > 100 µM | M14 > 100 µM | HCT-116 > 100 µM | COLO 205 > 100 µM

COC(=O)C1(F)C(=O)NC(=O)NC1OC (stereo not given)
inactive: TK-10 > 100 µM | SW-620 > 100 µM | SK-MEL-28 59.6 µM | IGROV-1 > 100 µM | NCI-H23 30.3 µM | OVCAR-5 > 100 µM | CCRF-CEM 3.08 µM | MOLT-4 > 100 µM | A549 5.92 µM | HT-29 22.2 µM | HOP-62 25.5 µM | HCT-116 7.8 µM | COLO 205 68.5 µM

COc1ccc2c(c1)[n+]([O-])c(C(=O)CC(=O)C(=O)Nc1cccc(Cl)c1C)c(C)[n+]2[O-]
inactive: TK-10 > 100 µM | SW-620 68.9 µM | SK-MEL-28 > 100 µM | IGROV-1 > 100 µM | NCI-H23 > 100 µM | OVCAR-5 > 100 µM | CCRF-CEM 21.7 µM | MOLT-4 49.4 µM | A549 > 100 µM | HT-29 83 µM | HOP-62 > 100 µM | RXF 393 > 100 µM | M14 > 100 µM | HCT-116 > 100 µM | COLO 205 53.7 µM

CS(=O)(=O)NNS(=O)(=O)c1ccc(Cl)cc1
inactive: TK-10 > 100 µM | SW-620 > 100 µM | IGROV-1 > 100 µM | NCI-H23 > 100 µM | CCRF-CEM 29.9 µM | MOLT-4 55.7 µM | A549 > 100 µM | HT-29 > 100 µM | HOP-62 > 100 µM | RXF 393 26.1 µM | M14 > 100 µM | HCT-116 > 100 µM | COLO 205 > 100 µM

COC(=O)CCC(NC(=S)N/N=C/c1ccco1)C(=O)OC (stereo not given)
inactive: TK-10 > 100 µM | SW-620 > 100 µM | SK-MEL-28 > 100 µM | IGROV-1 > 100 µM | NCI-H23 > 100 µM | OVCAR-5 > 100 µM | CCRF-CEM > 100 µM | A549 > 100 µM | HT-29 > 100 µM | HOP-62 > 100 µM | RXF 393 > 100 µM | M14 > 100 µM | HCT-116 > 100 µM | COLO 205 > 100 µM

CCOP(=O)(OCC)/C(C#N)=C/c1ccco1
inactive: TK-10 > 100 µM | SW-620 > 100 µM | SK-MEL-28 > 100 µM | IGROV-1 > 100 µM | NCI-H23 > 100 µM | OVCAR-5 > 100 µM | CCRF-CEM > 100 µM | MOLT-4 > 100 µM | A549 > 100 µM | HT-29 > 100 µM | HOP-62 > 100 µM | M14 > 100 µM | HCT-116 > 100 µM | COLO 205 > 100 µM

CN(C)CC1CCC(=C2CCCC2)C1=O (stereo not given)
inactive: TK-10 11.5 µM | SK-MEL-28 14.4 µM | IGROV-1 17.6 µM | NCI-H23 20 µM | OVCAR-5 17 µM | CCRF-CEM 3.03 µM | MOLT-4 2.76 µM | A549 20.5 µM | HT-29 12.5 µM | HOP-62 14.3 µM | RXF 393 10.5 µM | M14 8.3 µM | HCT-116 13.6 µM | COLO 205 14.9 µM

COC1=CC2(C=CC1=O)c1cc(OC)c(OC)cc1CCN2C(=O)c1ccccc1 (stereo not given)
inactive: TK-10 > 100 µM | SW-620 > 100 µM | SK-MEL-28 > 100 µM | IGROV-1 > 100 µM | NCI-H23 > 100 µM | CCRF-CEM > 100 µM | MOLT-4 > 100 µM | A549 > 100 µM | HT-29 > 100 µM | RXF 393 > 100 µM | M14 > 100 µM | HCT-116 > 100 µM | COLO 205 > 100 µM

CCCCC#COP(=O)(OCC)OCC
inactive: TK-10 > 100 µM | SW-620 > 100 µM | IGROV-1 > 100 µM | NCI-H23 > 100 µM | OVCAR-5 > 100 µM | CCRF-CEM > 100 µM | MOLT-4 > 100 µM | A549 > 100 µM | HT-29 > 100 µM | HOP-62 > 100 µM | M14 > 100 µM | HCT-116 > 100 µM | COLO 205 > 100 µM

O=C1c2ccccc2C(Br)(Br)c2ccccc21
inactive: TK-10 > 100 µM | SW-620 > 31.6 µM | SK-MEL-28 > 31.6 µM | IGROV-1 > 31.6 µM | NCI-H23 > 100 µM | OVCAR-5 > 31.6 µM | CCRF-CEM > 31.6 µM | MOLT-4 > 31.6 µM | A549 > 31.6 µM | HT-29 > 100 µM | HOP-62 > 10 µM | RXF 393 18.2 µM | M14 > 31.6 µM | HCT-116 > 31.6 µM | COLO 205 > 31.6 µM

COC(=O)C1=C(c2ccc(Cl)cc2)C(O)NC(NN)=N1 (stereo not given)
inactive: TK-10 > 100 µM | SW-620 > 100 µM | SK-MEL-28 > 100 µM | IGROV-1 > 100 µM | NCI-H23 > 100 µM | OVCAR-5 > 100 µM | CCRF-CEM > 100 µM | MOLT-4 > 100 µM | A549 > 100 µM | HT-29 > 100 µM | HOP-62 > 100 µM | RXF 393 > 100 µM | M14 > 100 µM | HCT-116 > 100 µM

CC(=O)OCC(=O)[C@@]1(O)CC[C@H]2[C@@H]3CCC4=CC(=O)[C@H](C)C[C@]4(C)[C@H]3[C@@H](O)C[C@@]21C
inactive: TK-10 > 100 µM | SW-620 > 100 µM | SK-MEL-28 > 100 µM | IGROV-1 > 100 µM | NCI-H23 > 100 µM | OVCAR-5 > 100 µM | CCRF-CEM > 100 µM | A549 > 100 µM | HT-29 > 100 µM | HOP-62 > 100 µM | M14 > 100 µM | HCT-116 > 100 µM | COLO 205 > 100 µM

NC(=S)/N=C(/c1nc2ccc(Cl)cc2nc1O)C(O)c1ccccc1Cl (stereo not given)
inactive: TK-10 > 100 µM | SW-620 > 100 µM | SK-MEL-28 > 100 µM | IGROV-1 > 100 µM | NCI-H23 > 100 µM | OVCAR-5 > 100 µM | CCRF-CEM > 100 µM | MOLT-4 > 100 µM | A549 > 100 µM | HT-29 > 100 µM | HOP-62 > 100 µM | RXF 393 > 100 µM | M14 > 100 µM | COLO 205 > 100 µM
